Some test systems named below: SK-OV-3 ovarian; SK-MEL-28 melanoma; HCT-15 colon; DU-145 prostate; RPMI-8226 leukemia; U251 CNS; SF-268 CNS; CAKI-1 renal.
What all share (test): growth of human tumour cells (NCI), 48 h

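Cells were grown in 96-well plates and exposed to each compound for 48 hours at five concentrations; endpoints were interpolated linearly between bracketing concentrations, or set to the highest concentration if not reached. The concentration for 50% growth inhibition is given as GI50. Definition used: TGI = concentration required for complete inhibition of growth.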

Consider `CCCCC[C@H]1C/C=C2/C(=O)C(Cl)=C[C@@H]2C/C=C\CCCC(=O)O1`, for which the GI50 was 0.907 µM in the experiment with SK-OV-3 ovarian; 0.472 µM with SK-MEL-28 melanoma; 284 nM in the experiment with HCT-15 colon; 0.638 µM in the experiment with DU-145 prostate; 171 nM with RPMI-8226 leukemia; 0.33 µM in the experiment with U251 CNS. For the same compound, the GI50 with SF-268 CNS is 0.803 µM. For the same compound, the TGI in the experiment on SK-OV-3 ovarian was 2.68 µM; in the experiment on SK-MEL-28 melanoma it was 1.12 µM; in the experiment with HCT-15 colon it was 0.895 µM; in the experiment with DU-145 prostate it was 2.51 µM; in the experiment with RPMI-8226 leukemia it was 1.52 µM; with U251 CNS, 0.737 µM. Also, in the experiment with SF-268 CNS, the TGI amounted to 3.72 µM.

`Nc1cc(N)c2nc(-c3ccccc3)c(NCc3ccc(Cl)c(Cl)c3)nc2c1`: the GI50 was 18.5 µM in the experiment on SK-OV-3 ovarian; 18.8 µM with SK-MEL-28 melanoma; 13.2 µM with CAKI-1 renal; 4640 nM with HCT-15 colon; 16.2 µM in the experiment with DU-145 prostate; 1660 nM with RPMI-8226 leukemia. The GI50 in the experiment with SF-268 CNS was 19.8 µM. Moreover, the TGI in the experiment with SK-OV-3 ovarian was 35.9 µM; in the experiment on SK-MEL-28 melanoma it was 41.7 µM; with CAKI-1 renal it was 52.7 µM; in the experiment on HCT-15 colon, over 100 µM; in the experiment on DU-145 prostate, 33.4 µM; with RPMI-8226 leukemia it was 3.72 µM. Moreover, the TGI with SF-268 CNS is 55.2 µM.

For `Cc1cc(OCc2nn(CN3CCN(C)CC3)c(=S)n2/N=C/c2ccc(F)cc2)ccc1Cl`, the GI50 in the experiment with SK-OV-3 ovarian was 19.7 µM; in the experiment with SK-MEL-28 melanoma it was 15.2 µM; with CAKI-1 renal, 20.1 µM; in the experiment on HCT-15 colon, 15200 nM; in the experiment on DU-145 prostate, 20.7 µM; with RPMI-8226 leukemia, 16800 nM. In the experiment with SF-268 CNS, the GI50 is 19.6 µM. Further, the TGI in the experiment on SK-OV-3 ovarian is 44.4 µM; in the experiment with SK-MEL-28 melanoma, 31.5 µM; with CAKI-1 renal it was 40.9 µM; in the experiment on HCT-15 colon it was 29.3 µM; with DU-145 prostate, 40.7 µM; in the experiment on RPMI-8226 leukemia it was 40.7 µM. The compound further displayed a TGI in the experiment with SF-268 CNS of 38 µM.

In the case of `CCCCNCCCCCNc1cc(OC)cc2cccnc12`, the GI50 with SK-OV-3 ovarian is 18.4 µM; in the experiment on CAKI-1 renal, 18.4 µM; in the experiment with HCT-15 colon it was 47900 nM; with DU-145 prostate it was 23.1 µM; with RPMI-8226 leukemia, 15500 nM; in the experiment on U251 CNS it was 42.6 µM. For the same compound, the GI50 in the experiment on SF-268 CNS was over 100 µM. The TGI in the experiment on SK-OV-3 ovarian was 35.9 µM; in the experiment on CAKI-1 renal, 37.7 µM; in the experiment on HCT-15 colon it was over 100 µM; in the experiment on DU-145 prostate, 56.3 µM; with RPMI-8226 leukemia, 39.8 µM; with U251 CNS it was over 100 µM. The compound further registered a TGI in the experiment with SF-268 CNS of over 100 µM.

Turning to `CC1(C)CC[C@]2(CO)CC[C@]3(C)C(=CC[C@@H]4[C@@]5(C)CCNCC(C)(C)[C@@H]5CC[C@]43C)[C@@H]2C1`, the GI50 in the experiment with SK-OV-3 ovarian is 13.5 µM; in the experiment on SK-MEL-28 melanoma, 2.13 µM; in the experiment on CAKI-1 renal, 3.64 µM; in the experiment on HCT-15 colon, 2160 nM; in the experiment with DU-145 prostate it was 6.93 µM; in the experiment with U251 CNS, 3.53 µM. Besides, in the experiment on SF-268 CNS, the GI50 was 8.98 µM. Further, the TGI in the experiment with SK-OV-3 ovarian was 26.8 µM; in the experiment with SK-MEL-28 melanoma, 5.39 µM; in the experiment on CAKI-1 renal it was 11.9 µM; in the experiment with HCT-15 colon it was 6.26 µM; in the experiment on DU-145 prostate, 21 µM; in the experiment with U251 CNS, 13.5 µM. Besides, in the experiment with SF-268 CNS, the TGI worked out at 25.4 µM.

On to `CC(=N/NC(N)=S)/C(C)=N/NC(N)=S`, for which the TGI in the experiment with SK-MEL-28 melanoma, with HCT-15 colon, with DU-145 prostate, with RPMI-8226 leukemia and with SF-268 CNS was over 100 µM each time.

As to `CCOC(=O)c1cc(C(=O)c2cc(OC)c(OC)c(OC)c2)n2ccc(-c3cc[n+](CC(=O)c4cc(OC)c(OC)c(OC)c4)cc3)cc12`, the GI50 was 19.6 µM in the experiment on SK-OV-3 ovarian, 1.75 µM with SK-MEL-28 melanoma, 2620 nM in the experiment with HCT-15 colon and 1.8 µM in the experiment with DU-145 prostate. In addition, the TGI with SK-OV-3 ovarian came to 47.1 µM; with SK-MEL-28 melanoma, 3.6 µM; in the experiment on HCT-15 colon it was 7.93 µM; in the experiment with DU-145 prostate, 3.39 µM.

For `C=CCN1C(=O)[C@]2(SC1=S)[C@H](c1cccc(Cl)c1)CN(C)[C@]21C(=O)NC2C=CC(Cl)=C[C@H]21` (some centres not stated), the GI50 was 8.36 µM with SK-OV-3 ovarian; 10.9 µM with SK-MEL-28 melanoma; 2890 nM with HCT-15 colon; 4.16 µM with DU-145 prostate; 1640 nM in the experiment with RPMI-8226 leukemia; 2.08 µM with U251 CNS. Further, the GI50 in the experiment on SF-268 CNS was 6.77 µM. Moreover, the TGI turned out to be 29.2 µM with SK-OV-3 ovarian; 27.8 µM in the experiment on SK-MEL-28 melanoma; 13.1 µM in the experiment with HCT-15 colon; 14.6 µM in the experiment with DU-145 prostate; 4.97 µM in the experiment with RPMI-8226 leukemia; 4.62 µM in the experiment with U251 CNS. In addition, the TGI in the experiment with SF-268 CNS worked out at 24.6 µM.

Regarding `C=C1C(=O)O[C@H]2[C@H]1CC/C(COC(=O)N[C@H](Cc1c[nH]c3ccccc13)C(=O)OC)=C\CC[C@@]1(C)O[C@@H]21`, the GI50 in the experiment on SK-OV-3 ovarian is 13.4 µM; with SK-MEL-28 melanoma it was 1.96 µM; in the experiment with HCT-15 colon, 1530 nM; in the experiment with DU-145 prostate, 1.61 µM; in the experiment on RPMI-8226 leukemia it was 2020 nM; in the experiment on U251 CNS, 10 µM. The GI50 in the experiment on SF-268 CNS is 5.17 µM. Also, the TGI in the experiment on SK-OV-3 ovarian was 26.4 µM; in the experiment on SK-MEL-28 melanoma, 4.48 µM; in the experiment with HCT-15 colon, 3.43 µM; in the experiment with DU-145 prostate it was 4.37 µM; in the experiment on RPMI-8226 leukemia, 5.83 µM; with U251 CNS it was 22.1 µM. The TGI with SF-268 CNS stood at 19.8 µM.

With `C/C(=N\NC(=S)N1CCN(c2ccccn2)CC1)c1cccc2cccnc12`, the TGI in the experiment on SK-OV-3 ovarian was 43.5 µM; with SK-MEL-28 melanoma, over 100 µM; in the experiment with CAKI-1 renal, over 100 µM; in the experiment with HCT-15 colon, over 100 µM; in the experiment on RPMI-8226 leukemia, 20.2 µM; in the experiment with U251 CNS it was over 29.7 µM. The compound also yielded a TGI with SF-268 CNS of over 100 µM.

`Cc1cn2c(/C=C3\C(=O)N(C)c4ccc(Cl)cc43)c(C)nc2s1`: the GI50 with SK-MEL-28 melanoma is 6.6 µM; in the experiment with CAKI-1 renal it was 3.11 µM; in the experiment on HCT-15 colon, 4030 nM; with RPMI-8226 leukemia it was 2840 nM; with U251 CNS, 3.27 µM; in the experiment with SF-268 CNS it was 3.02 µM. Moreover, the TGI in the experiment with SK-MEL-28 melanoma was over 100 µM; in the experiment with CAKI-1 renal, over 100 µM; in the experiment on HCT-15 colon, over 100 µM; in the experiment with RPMI-8226 leukemia, 9.4 µM; with U251 CNS, 12.3 µM; in the experiment on SF-268 CNS it was over 100 µM.

`Cc1ccc2c(c1)C(O)(c1ccccc1)CCS2` (configuration not stated): the TGI was over 100 µM with SK-OV-3 ovarian; over 100 µM in the experiment with SK-MEL-28 melanoma; 53.6 µM in the experiment on CAKI-1 renal; 42.4 µM in the experiment with HCT-15 colon; over 100 µM with DU-145 prostate; 45.8 µM with U251 CNS. In addition, the TGI with SF-268 CNS was over 100 µM.

Source of the values: PubChem BioAssay (NCI).
